These are literature values, as cited in patent US20220265565A1, “NANOTECHNOLOGY-BASED DELIVERY SYSTEM OF BERGAMOT ESSENTIAL OIL, METHOD OF PREPARATION OF THE SYSTEM AND USES THEREOF” (priority 2019, published 2022).

The conditions of series [1]: about 0.2% in the nonvolatile residue of BEO.
Series [2] concerns nociceptive response in the capsaicin test. The following applies: for nociceptive response in the capsaicin test: intraplantar (i.pl.) administration.
Series [3] has as its system PSNL-induced neuropathic pain symptoms in mice.

As for `COc1c2ccoc2cc2oc(=O)ccc12` [bergapten, 5-methoxypsoralen], the phototoxicity entry in series [1] was “responsible for the phototoxicity of BEO”.

Regarding `C=CC(C)(O)CCC=C(C)C` (stereo not drawn) [linalool], in series [2], the “nociceptive response in the capsaicin test” value is listed as “reduced the nociceptive response”. Also, in series [2] (morphine i.p. or i.t. combined with i.pl. injection of the substance), the “morphine-induced antinociception with combined injection” value is recorded as “markedly enhanced”. Moreover, in series [3] (neuropathic pain models, PSNL mice, i.pl. injection), the “neuropathic pain symptoms / mechanical allodynia” value is recorded as “reduced partial sciatic nerve ligation (PSNL)-induced neuropathic pain symptoms”. In addition, in series [3] (under neuropathic pain), the morphine-induced anti-allodynic effect result is reported as “modulate morphine-induced anti-allodynic effect”.

As for `C=CC(C)(CCC=C(C)C)OC(C)=O` (stereo not drawn) [linalyl acetate], the “nociceptive response in the capsaicin test” value in series [2] is listed as “reduced the nociceptive response”.
